Source: article PMC10712727, “Safety, Tolerability, and Pharmacokinetics of Senaparib, a Novel PARP1/2 Inhibitor, in Chinese Patients With Advanced Solid Tumors: A Phase I Trial” (The Oncologist, 2023)

System: patients with advanced solid tumors
Assay: Safety: treatment-emergent and senaparib-related adverse events graded per NCI CTCAE v4.03
Type: in vivo
Procedure: This phase I, open-label, multicenter, dose-escalation, and dose-expansion study was conducted at three national clinical institutions in China. […] At baseline, all patients enrolled in the dose-escalation phase had to have at least one evaluable lesion, and those in the dose-expansion period had to have at least one measurable lesion, according to Response Evaluation Criteria in Solid Tumors version 1.1 (RECIST v1.1).[16] Entry to the dose-expansion cohort required the presence of a BRCA mutation, with the exception of patients with ovarian carcinoma, fallopian tube carcinoma, and primary peritoneal carcinoma. Full study eligibility criteria are provided in Supplementary Table S1.
Dose escalation was conducted using a modified Fibonacci 3 + 3 method (Supplementary Fig. S1).[17] Patients were administered oral senaparib from a planned starting dose of 2 mg once daily (QD), with preliminary dose escalation to 120 mg via nine dose groups, in order of their entry into the study. At a given dose level, each patient received a single dose of senaparib followed by a 7-day washout period. They then entered a continuous dosing period to confirm the safety and PK profile, in which they received senaparib QD from day 1 to day 21 of each 3-week cycle. Progression to the next higher dose required approval from the Data Safety Monitoring Committee (DSMC) upon review of the safety and PK data of the previous dose. A 50-mg twice-daily (BID) dosing group was added (planned enrollment, n = 6 patients) based on a DSMC review of the safety, PK, and efficacy analysis of the completed QD dose groups in the phase I clinical trial of senaparib dose escalation in Australia (NCT03507543), which commenced prior to the start of this trial.
The dose-expansion period included 3 populations: dose groups in which at least one patient achieved complete response (CR) or partial response (PR) per RECIST v1.1[16] and 1 dose group higher (evaluated for safety), as well as the dose group at the maximum tolerated dose (MTD)/recommended phase II dose (RP2D). Each of these groups included those patients in the respective dose-escalation group plus a planned additional 10 patients (approximately 20 patients in the MTD/RP2D group) with BRCA^mut+ solid tumors (ovarian, breast, or prostate cancer were preferred, and ovarian cancer could be BRCA wild type). Patients received senaparib monotherapy orally QD or BID (50-mg dose only) over each 3-week cycle until disease progression or unacceptable toxicity.
DLTs were predefined toxicities (Supplementary Table S2) recorded over the 7 days following the single-dose administration of senaparib and during the first treatment cycle (day 1-day 21) for each dose group in the dose-escalation period only. The MTD was defined as the maximum dose at which ≤1/6 patients experienced a DLT. Senaparib PK parameters were derived from blood samples collected from patients after the single administration, and at regular intervals during the first cycle of the dose-escalation and dose-expansion periods. Plasma concentrations of senaparib were determined using high-performance liquid chromatography-tandem mass spectrometry. Tumor response was assessed every 6 weeks per RECIST v1.1,[16] recording objective response rate (ORR), disease control rate (DCR), duration of response (DOR), and progression-free survival (PFS) by dose level for all patients and for those harboring BRCA^mut+ tumors.

## O=C(c1cc(Cn2c(=O)[nH]c(=O)c3c(F)cccc32)ccc1F)N1CCN(c2ncccn2)CC1 [Senaparib]
60 mg QD n = 5
  AST increased TRAE, All: 0 n (%)
  AST increased TRAE, Gr≥3: 0 n (%)
  Anemia TRAE, All: 0 n (%)
  Anemia TRAE, Gr≥3: 0 n (%)
  Any TEAE, All: 5 (100) n (%)
  Any TEAE, Gr≥3: 2 (40.0) n (%)
  Any TEAE, events: 33 n ev
  Any TEAE, patients: 5 (100) n (%)
  Any TRAE, All: 5 (100) n (%)
  Any TRAE, Gr≥3: 0 n (%)
  Appetite decreased TRAE, All: 1 (20.0) n (%)
  Appetite decreased TRAE, Gr≥3: 0 n (%)
  Asthenia TRAE, All: 1 (20.0) n (%)
  Asthenia TRAE, Gr≥3: 0 n (%)
  Blood bilirubin increased TRAE, All: 0 n (%)
  Blood bilirubin increased TRAE, Gr≥3: 0 n (%)
  Blood creatinine increased TRAE, All: 1 (20.0) n (%)
  Blood creatinine increased TRAE, Gr≥3: 0 n (%)
  Hypokalemia TRAE, All: 1 (20.0) n (%)
  Hypokalemia TRAE, Gr≥3: 0 n (%)
  Nausea TRAE, All: 1 (20.0) n (%)
  Nausea TRAE, Gr≥3: 0 n (%)
  Neutrophil count decreased TRAE, All: 1 (20.0) n (%)
  Neutrophil count decreased TRAE, Gr≥3: 0 n (%)
  Platelet count decreased TRAE, All: 2 (40.0) n (%)
  Platelet count decreased TRAE, Gr≥3: 0 n (%)
  SAEs, events: 2 n ev
  SAEs, patients: 2 (40.0) n (%)
  TEAE Grade ≥3, events: 2 n ev
  TEAE Grade ≥3, patients: 2 (40.0) n (%)
  TEAEs leading to death, events: 0 n ev
  TEAEs leading to death, patients: 0 n (%)
  TEAEs leading to dose discontinuation, events: 1 n ev
  TEAEs leading to dose discontinuation, patients: 1 (20.0) n (%)
  TEAEs leading to dose interruption, events: 1 n ev
  TEAEs leading to dose interruption, patients: 1 (20.0) n (%)
  TEAEs leading to dose reduction, events: 0 n ev
  TEAEs leading to dose reduction, patients: 0 n (%)
  TRAEs Grade ≥3, events: 0 n ev
  TRAEs Grade ≥3, patients: 0 n (%)
  TRAEs, events: 27 n ev
  TRAEs, patients: 5 (100) n (%)
  Vomiting TRAE, All: 0 n (%)
  Vomiting TRAE, Gr≥3: 0 n (%)
  WBC decreased TRAE, All: 2 (40.0) n (%)
  WBC decreased TRAE, Gr≥3: 0 n (%)
80 mg QD n = 9
  ALT increased TRAE, All: 1 (11.1) n (%)
  ALT increased TRAE, Gr≥3: 0 n (%)
  AST increased TRAE, All: 2 (22.2) n (%)
  AST increased TRAE, Gr≥3: 0 n (%)
  Anemia TRAE, All: 7 (77.8) n (%)
  Anemia TRAE, Gr≥3: 3 (33.3) n (%)
  Any TEAE, All: 9 (100) n (%)
  Any TEAE, Gr≥3: 6 (66.7) n (%)
  Any TEAE, events: 132 n ev
  Any TEAE, patients: 9 (100) n (%)
  Any TRAE, All: 9 (100) n (%)
  Any TRAE, Gr≥3: 5 (55.6) n (%)
